Experimental data reported in PubChem BioAssay (NCI).
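Five compound concentrations were applied to cells in 96-well plates for 48 hours; endpoints were derived by simple linear interpolation of the resulting dose-response curve. GI50 is the concentration that inhibits growth by half. TGI denotes the concentration required for complete inhibition of growth.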

Experiments:
Experiment in all cases: inhibition of tumour cell growth, NCI panel, 48 h
HCT-116 colon = test system: HCT-116 colon
MALME-3M melanoma = test system: MALME-3M melanoma
OVCAR-3 ovarian = test system: OVCAR-3 ovarian
HCT-15 colon = test system: HCT-15 colon
HT29 colon = test system: HT29 colon
NCI-H460 lung = test system: NCI-H460 lung
COLO 205 colon = test system: COLO 205 colon
HOP-92 NSCLC = test system: HOP-92 NSCLC
K-562 leukemia = test system: K-562 leukemia
UACC-257 melanoma = test system: UACC-257 melanoma
LOX IMVI melanoma = test system: LOX IMVI melanoma
SK-MEL-28 melanoma = test system: SK-MEL-28 melanoma
SF-295 CNS = test system: SF-295 CNS
A498 renal = test system: A498 renal
ACHN renal = test system: ACHN renal
UACC-62 melanoma = test system: UACC-62 melanoma
MDA-MB-435 = test system: MDA-MB-435
TK-10 renal = test system: TK-10 renal
IGROV1 ovarian = test system: IGROV1 ovarian
HCC-2998 colon = test system: HCC-2998 colon
DU-145 prostate = test system: DU-145 prostate
T-47D breast = test system: T-47D breast
OVCAR-5 ovarian = test system: OVCAR-5 ovarian
BT-549 breast = test system: BT-549 breast
UO-31 renal = test system: UO-31 renal
OVCAR-4 ovarian = test system: OVCAR-4 ovarian
SK-OV-3 ovarian = test system: SK-OV-3 ovarian
HS 578T breast = test system: HS 578T breast
RXF 393 renal = test system: RXF 393 renal
SF-539 CNS = test system: SF-539 CNS
NCI-H226 lung = test system: NCI-H226 lung
SK-MEL-5 melanoma = test system: SK-MEL-5 melanoma
NCI/ADR-RES ovarian = test system: NCI/ADR-RES ovarian
M14 melanoma = test system: M14 melanoma
SN12C renal = test system: SN12C renal
EKVX NSCLC = test system: EKVX NSCLC
OVCAR-8 ovarian = test system: OVCAR-8 ovarian
MDA-MB-231 breast = test system: MDA-MB-231 breast
NCI-H522 lung = test system: NCI-H522 lung
HL-60(TB) leukemia = test system: HL-60(TB) leukemia
786-0 renal = test system: 786-0 renal
CAKI-1 renal = test system: CAKI-1 renal
U251 CNS = test system: U251 CNS
SF-268 CNS = test system: SF-268 CNS
SW-620 colon = test system: SW-620 colon
KM12 colon = test system: KM12 colon
NCI-H23 lung = test system: NCI-H23 lung
RPMI-8226 leukemia = test system: RPMI-8226 leukemia
SNB-75 CNS = test system: SNB-75 CNS
SR leukemia = test system: SR leukemia
MOLT-4 leukemia = test system: MOLT-4 leukemia
SK-MEL-2 melanoma = test system: SK-MEL-2 melanoma
HOP-62 NSCLC = test system: HOP-62 NSCLC
SNB-19 CNS = test system: SNB-19 CNS
PC-3 prostate = test system: PC-3 prostate
MCF7 breast = test system: MCF7 breast
A549 NSCLC = test system: A549 NSCLC

CCC(C)[C@H](NC(=O)NC(=O)NC(=O)CI)C(=O)OC (some centres undefined)
GI50 (HCT-116 colon): 6.05 µM
TGI (HCT-116 colon): 18.3 µM
GI50 (MALME-3M melanoma): 1.89 µM
TGI (MALME-3M melanoma): 4 µM
GI50 (OVCAR-3 ovarian): 2.2 µM
TGI (OVCAR-3 ovarian): 4.66 µM
GI50 (HCT-15 colon): 1.76 µM
TGI (HCT-15 colon): 3.42 µM
GI50 (HT29 colon): 1.92 µM
TGI (HT29 colon): 3.59 µM
GI50 (NCI-H460 lung): 17.4 µM
TGI (NCI-H460 lung): 39.4 µM
GI50 (COLO 205 colon): 1.77 µM
TGI (COLO 205 colon): 3.6 µM
GI50 (HOP-92 NSCLC): 2.67 µM
TGI (HOP-92 NSCLC): 7.3 µM
GI50 (K-562 leukemia): 2.03 µM
TGI (K-562 leukemia): 4.48 µM
GI50 (UACC-257 melanoma): 12.6 µM
TGI (UACC-257 melanoma): 25.8 µM
GI50 (LOX IMVI melanoma): 1.69 µM
TGI (LOX IMVI melanoma): 3.27 µM
GI50 (SK-MEL-28 melanoma): 13.6 µM
TGI (SK-MEL-28 melanoma): 27.5 µM
GI50 (SF-295 CNS): 15.2 µM
TGI (SF-295 CNS): 28.9 µM
GI50 (A498 renal): 16.2 µM
TGI (A498 renal): 30.5 µM
GI50 (ACHN renal): 2.11 µM
TGI (ACHN renal): 4.43 µM
GI50 (UACC-62 melanoma): 11.3 µM
TGI (UACC-62 melanoma): 24.7 µM
GI50 (MDA-MB-435): 10.5 µM
TGI (MDA-MB-435): 22.3 µM
GI50 (TK-10 renal): 2.96 µM
TGI (TK-10 renal): 11.8 µM
GI50 (IGROV1 ovarian): 3.47 µM
TGI (IGROV1 ovarian): 12.1 µM
GI50 (HCC-2998 colon): 13.7 µM
TGI (HCC-2998 colon): 26.9 µM
GI50 (DU-145 prostate): 15.2 µM
TGI (DU-145 prostate): 28.4 µM
GI50 (T-47D breast): 10 µM
TGI (T-47D breast): 34.8 µM
GI50 (OVCAR-5 ovarian): 15 µM
TGI (OVCAR-5 ovarian): 32.3 µM
GI50 (BT-549 breast): 10.6 µM
TGI (BT-549 breast): 22.4 µM
GI50 (UO-31 renal): 1.73 µM
TGI (UO-31 renal): 3.28 µM
GI50 (OVCAR-4 ovarian): 2.48 µM
TGI (OVCAR-4 ovarian): 8.68 µM
GI50 (SK-OV-3 ovarian): 17.2 µM
TGI (SK-OV-3 ovarian): 31.4 µM
GI50 (HS 578T breast): 23.5 µM
TGI (HS 578T breast): 73.5 µM
GI50 (RXF 393 renal): 4.51 µM
TGI (RXF 393 renal): 15.2 µM
GI50 (SF-539 CNS): 10.3 µM
TGI (SF-539 CNS): 22.8 µM
GI50 (NCI-H226 lung): 3.84 µM
TGI (NCI-H226 lung): 19.1 µM
GI50 (SK-MEL-5 melanoma): 16.7 µM
TGI (SK-MEL-5 melanoma): 30.5 µM
GI50 (NCI/ADR-RES ovarian): 21.2 µM
TGI (NCI/ADR-RES ovarian): 60 µM
GI50 (M14 melanoma): 2.47 µM
TGI (M14 melanoma): 6.8 µM
GI50 (SN12C renal): 4.28 µM
TGI (SN12C renal): 20.4 µM
GI50 (EKVX NSCLC): 16.7 µM
TGI (EKVX NSCLC): 30.6 µM
GI50 (OVCAR-8 ovarian): 13.6 µM
TGI (OVCAR-8 ovarian): 29.3 µM
GI50 (MDA-MB-231 breast): 13.6 µM
TGI (MDA-MB-231 breast): 30.7 µM
GI50 (NCI-H522 lung): 1.51 µM
TGI (NCI-H522 lung): 3.01 µM
GI50 (HL-60(TB) leukemia): 1.6 µM
TGI (HL-60(TB) leukemia): 3.4 µM
GI50 (786-0 renal): 11.3 µM
TGI (786-0 renal): 23.4 µM
GI50 (CAKI-1 renal): 1.41 µM
TGI (CAKI-1 renal): 2.78 µM
GI50 (U251 CNS): 14.8 µM
TGI (U251 CNS): 27.9 µM
GI50 (SF-268 CNS): 12.6 µM
TGI (SF-268 CNS): 28.5 µM
GI50 (SW-620 colon): 1.86 µM
TGI (SW-620 colon): 3.61 µM
GI50 (KM12 colon): 16.6 µM
TGI (KM12 colon): 33.2 µM
GI50 (NCI-H23 lung): 16.3 µM
TGI (NCI-H23 lung): 35.8 µM
GI50 (RPMI-8226 leukemia): 3.16 µM
TGI (RPMI-8226 leukemia): 9.27 µM
GI50 (SNB-75 CNS): 10.3 µM
TGI (SNB-75 CNS): 26.1 µM
GI50 (SR leukemia): 1.37 µM
TGI (SR leukemia): 4.15 µM
GI50 (MOLT-4 leukemia): 2.47 µM
TGI (MOLT-4 leukemia): 6.74 µM
GI50 (SK-MEL-2 melanoma): 14.2 µM
TGI (SK-MEL-2 melanoma): 27.3 µM
GI50 (HOP-62 NSCLC): 16.3 µM
TGI (HOP-62 NSCLC): 31.4 µM
GI50 (SNB-19 CNS): 15.4 µM
TGI (SNB-19 CNS): 31.6 µM
GI50 (PC-3 prostate): 12.2 µM
TGI (PC-3 prostate): 26.7 µM
GI50 (MCF7 breast): 3.02 µM
TGI (MCF7 breast): 12.9 µM
GI50 (A549 NSCLC): 19.5 µM
TGI (A549 NSCLC): 37 µM
